{"source": "patent US12233140B2", "about": "“Hyperbranched polyglycerol-coated particles and methods of making and using thereof” (priority 2014, dated 2025)", "key": {"[1]": {"experiment": "Retention of IR-780 loaded NPs in the peritoneal cavity after IP administration (live imaging)", "conditions": "free dye control", "quoted_text": "Six BALB/c nude mice were divided into 2 groups, 3 mice per group. […] Each mouse received 100 μL NP suspensions. The fluorescence was monitored with live imaging (Xenogen Corp., Alameda, CA) over time. The quantification of fluorescence retained in intraperitoneal cavity over time was determined.\nEach mouse received 100 μL of the nanoparticle suspension at 10 mg/mL. The fluorescence was monitored with live imaging (Xenogen, Alameda, CA) over time."}, "[2]": {"test_system": "uterine papillary serous carcinoma (UPSC) cells", "experiment": "In vitro cytotoxicity on UPSC cells, 72 h (Cell Titer Blue)", "assay_type": "cell-based", "conditions": "3 days", "protocol": "UPSC cells (180 μL) were plated in each well of a 96 well plate at a density of 2,000/well and left in a 37° C. incubator overnight. […] The cells were incubated for 72 h and cell viability was quantified with Cell Titer Blue."}, "[3]": {"test_system": "i.p. USC tumors (USC-ARK-2 xenografts)", "experiment": "Survival and body weight of nude mice bearing intraperitoneal USC tumors, IP treatment", "assay_type": "in vivo", "protocol": "Forty BALB/c Nude mice (5-6 weeks old, Charles River Laboratories) were intraperitoneally injected with 1×10^6 UPSC cells. After 1 week, drug treatments were started with PBS control, blank PLA-HPGALD control and 3 EB formulations. […] Treatments were administrated intraperitoneally with a dose of EB (0.5 mg/kg) every week for 5 weeks. The body weights of the mice were measured twice a week. Animals were euthanized when the body weight loss exceeded 20%, or when other signals of sickness, such as breathing problems, failure to eat and drink, lethargy or abnormal posture, were observed.\nBALB/c Nude mice (5-6 weeks old, Charles River Laboratories) were intraperitoneally injected with 1×10^6 USC cells. After 1 week, drug treatments were started with 8 animals in each group. […] In this experiment, treatments were administrated intraperitoneally with a 2.5 mg/kg dose of EB every week for 3 weeks. In another experiment, five groups were compared as described in Example 11.\nThe body weights of the mice were measured as described in Example 11."}, "[4]": {"experiment": "Retention profile of EB in peritoneal cavity after IP injection (HPLC)", "conditions": "6 hr after a single IP dose, EB 2.5 mg/kg", "quoted_text": "C57BL/6 mice (5-6 weeks old, Charles River Laboratories) were divided into three groups with 9 mice per group and one group with 3 mice. The group with 3 mice was used as a vehicle control. […] At each time point (6 hr, 1 d and 3 d), 3 mice from each group and one mouse from the 3-animal vehicle control group were euthanized and the peritoneal cavities washed with 5 mL acetonitrile for 3 times. The acetonitrile samples were centrifuged and the supernatant was collected and processed for HPLC analysis. EB concentration was determined with HPLC with C18 column with methanol/water (7:3) with UV detector set at 240 nm absorbance."}}}
{"compound": "CCCN1C(=CC=C2CCCC(C=CC3=[N+](CCC)c4ccccc4C3(C)C)=C2Cl)C(C)(C)c2ccccc21.[I-]", "note": "[Free dye, IR-780 iodide]", "values": [{"measurement": "time to complete clearance from the IP cavity", "setting": "[1]", "result": "less than 4 hours"}]}
{"compound": "C/C(=C\\c1csc(C)n1)[C@@H]1C[C@@H]2O[C@]2(C)CCC[C@H](C)[C@H](O)[C@@H](C)C(=O)C(C)(C)[C@@H](O)CC(=O)O1", "note": "[free EB, epothilone B]", "values": [{"measurement": "in vitro cytotoxicity against UPSC cells", "setting": "[2]", "result": "highest toxicity"}, {"measurement": "animals surviving to 110 days", "setting": "[3]; EB 0.5 mg/kg", "result": "approximately 10%"}, {"measurement": "body weight", "setting": "[3]; EB 2.5 mg/kg", "result": "weight loss"}, {"measurement": "death due to toxicity", "setting": "[3]; EB 2.5 mg/kg", "result": "early death due to EB toxicity"}, {"measurement": "survival compared with PBS", "setting": "[3]; EB 2.5 mg/kg IP weekly for 3 weeks", "result": "only mice treated with the lower dosage showed significance"}, {"measurement": "toxicity (weight loss, diarrhea, bowel dilation)", "setting": "[3]; FIG. 18B", "result": "significant toxicity"}, {"measurement": "survival compared with PBS", "setting": "[3]; five-group experiment, EB 0.5 mg/kg IP weekly for 5 weeks", "result": "showed significance"}, {"measurement": "EB retained in the peritoneal cavity", "setting": "[4]", "result": "No EB was detected"}]}
